ChEMBL document CHEMBL1126480, “Peptide azoles: A new class of biologically-active dipeptide mmetics” (Bioorg Med Chem Lett, 1993)

Target: T1, Substance-P receptor (Cavia porcellus, UniProt P30547)
Assay: The compound was evaluated in vitro for the antagonistic activity against Tachykinin receptor 1 in guinea pig myenteric plexus longitudinal muscle strips.
Type: functional
Details: read-out: pA2 (converted)

T1 sequence (P30547 whole entry): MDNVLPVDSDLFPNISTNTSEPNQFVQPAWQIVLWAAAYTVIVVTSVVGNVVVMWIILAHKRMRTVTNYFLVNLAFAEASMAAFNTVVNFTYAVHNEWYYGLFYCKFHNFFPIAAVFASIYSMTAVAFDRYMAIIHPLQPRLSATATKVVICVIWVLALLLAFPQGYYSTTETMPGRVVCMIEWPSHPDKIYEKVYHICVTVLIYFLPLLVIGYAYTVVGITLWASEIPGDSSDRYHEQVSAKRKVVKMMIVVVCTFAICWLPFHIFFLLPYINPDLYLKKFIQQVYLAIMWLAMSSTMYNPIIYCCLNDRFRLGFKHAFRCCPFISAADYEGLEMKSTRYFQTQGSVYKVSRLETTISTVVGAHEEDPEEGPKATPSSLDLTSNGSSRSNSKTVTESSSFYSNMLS

| Kb [nM] | Compound |
| --- | --- |
| 126 | CC(C)C[C@H](NC(=O)[C@@H](Cc1c[nH]c2ccccc12)NC(=O)[C@H](Cc1ccccc1)c1cnc([C@H](Cc2c[nH]c3ccccc23)NC(=O)[C@@H]2CCCN2)s1)C(=O)N[C@@H](Cc1ccccc1)C(N)=O |

Target: T1, Substance-P receptor
Assay: The compound was evaluated in vitro for the antagonistic activity against substance P receptor in guinea pig myenteric plexus longitudinal muscle strips.
Type: functional
Details: read-out: pA2 (converted)

| Kb [nM] | Compound |
| --- | --- |
| 39.8 | CC(C)C[C@H](NC(=O)[C@@H](Cc1c[nH]c2ccccc12)NC(=O)[C@H](Cc1ccccc1)c1cnc([C@@H](Cc2c[nH]c3ccccc23)NC(=O)[C@@H]2CCCN2)s1)C(=O)N[C@@H](Cc1ccccc1)C(N)=O |
| 398 | H-PWFWLF-NH2 |
| 200 | CC(C)C[C@H](NC(=O)[C@@H](Cc1c[nH]c2ccccc12)NC(=O)[C@H](Cc1ccccc1)c1c[nH]c([C@@H](Cc2c[nH]c3ccccc23)NC(=O)[C@@H]2CCCN2)n1)C(=O)N[C@@H](Cc1ccccc1)C(N)=O |
| 501 | CC(C)C[C@H](NC(=O)[C@@H](Cc1c[nH]c2ccccc12)NC(=O)[C@H](Cc1ccccc1)c1cnc([C@@H](Cc2c[nH]c3ccccc23)NC(=O)[C@@H]2CCCN2)o1)C(=O)N[C@@H](Cc1ccccc1)C(N)=O |
| 1260 | CC(C)C[C@H](NC(=O)[C@@H](Cc1c[nH]c2ccccc12)c1cnc(C(=O)[C@H](Cc2ccccc2)NC(=O)[C@@H](Cc2c[nH]c3ccccc23)NC(=O)[C@@H]2CCCN2)s1)C(=O)N[C@@H](Cc1ccccc1)C(N)=O |
